Converted amounts (≈) assume the structure as drawn. Where two headings read alike, the source gives them in different places.
Legend:
[1] = system: rat myoblast cell line (L6 cells); type: cell-based
From the text: Considering the potency of plasmodione and the observed main metabolite 6-hydroxy–plasmodione eliminated in the urine of PD-treated mice, our primary goal was to introduce a fluorine atom at C-6 of the menadione core to block the process of drug metabolism from occurring in the host’s liver. In this aim, we prioritized the preparation of a library of 6-fluoro-3-benzylmenadiones by investigating the replacement of the trifluoromethyl group by diverse EWG and EDG groups in various loci of the aryl ring. For SAR, all compounds were tested for the inhibition of parasite growth in RBCs infected with a P. falciparum chloroquine-sensitive strain, NF54. The parasites were cultured in vitro according to known conditions. […] The cytotoxicity of the active compounds was assessed against a rat myoblast cell line (L6 cells).
Cell proliferation was assessed with resazurin, and the generally cytotoxic agent podophyllotoxin served as the positive control, as previously reported by the STPH authors M. R. and P. M. in their recently published article.

[2] = system: P. falciparum NF54 strain; experiment: P. falciparum NF54 [3H]hypoxanthine incorporation assay, 72 h, 0.5% Albumax; type: cell-based; details: Plasmodium falciparum
[3] = system: rat myoblast cell line (L6 cells); details: cited from earlier work
[4] = system: P. falciparum NF54 strain; details: cited from earlier work
[5] = Thermodynamic aqueous solubility (shake-flask, PBS-10% DMSO); type: physicochemical; details: PBS with 10% DMSO, aqueous with cosolvent or surfactant or cyclodextrin, PBS pH 7.4, 10% DMSO, 20 °C, read-out: Thermodynamic aq. Solubility in PBS-10% DMSO
Method: Thermodynamic Aqueous Solubility: The shake-flask method enabled us to determine the apparent thermodynamic solubilities of the DMSO stock solutions of the compounds. […] The mixture was equilibrated at 20 °C for 24 h. After centrifugation, the supernatant was injected into an HPLC column coupled to an LC-MS apparatus (with UV–Vis detection) in order to determine the compound concentration. […] These solutions were also injected in order to calibrate the concentration determination process. […] Measurements were performed in duplicate.

[6] = NF54, 72 h, P. falciparum NF54, 72 h, read-out: IC50
[7] = NF54, as stated in text, read-out: IC50 against P. falciparum NF54
[8] = NF54, read-out: IC50 against P. falciparum NF54

SMILES | Tox/L6 [1] [µM] | IC50 [2, 6] [nM] | further results
CC1=C(Cc2ccccc2C#N)C(=O)c2ccccc2C1=O [A-b-11] | 186.2 | 312 | 
CC1=C(Cc2cccc(C(F)(F)F)c2)C(=O)c2ccccc2C1=O [B-b-1] |  |  | IC50 [2, 7]: < 100 nM; Tox/L6 ([3]; grey line ref 9): 57.1 µM; IC50 ([4]; grey line ref 9): 62 nM
CC1=C(Cc2ccc3c(c2)OC(C)(C)O3)C(=O)c2cc(F)ccc2C1=O [A-a-23] |  | 338 | 
CC1=C(Cc2ccccc2)C(=O)c2cc(F)ccc2C1=O [B-a-31] | 174.5 | 300 | 
CC1=C(Cc2ccc([N+](=O)[O-])c(F)c2)C(=O)c2ccccc2C1=O [B-b-32] |  |  | Tox/L6 ([3]; grey line ref 9): 189.2 µM; IC50 ([4]; grey line ref 9): 598 nM
CC1=C(Cc2ccc(OC(F)(F)F)cc2)C(=O)c2cc(F)ccc2C1=O [A-a-3] | 138.8 | 330 | 
CC1=C(Cc2ccc(Br)cc2C(F)(F)F)C(=O)c2ccccc2C1=O [B-b-34] |  | 78 | 
CC1=C(Cc2ccc3scnc3c2)C(=O)c2cc(F)ccc2C1=O [C-a-40] |  | 2060 | 
COc1ccc(CC2=C(C)C(=O)c3ccc(F)cc3C2=O)cc1 [A-a-16] | 195.9 | 1120 | 
CC1=C(CC2CCCCC2)C(=O)c2cc(F)ccc2C1=O [A-a-29] | 177.8 | 718 | 
CC1=C(Cc2ccc3c(c2)OCCO3)C(=O)c2cc(F)ccc2C1=O [A-a-22] |  | 311 | 
CC1=C(Cc2ccc(F)cc2)C(=O)c2ccccc2C1=O [A-b-4] |  |  | IC50 [2, 8]: < 100 nM; IC50 ([4]; grey line ref 13): 29 nM
CC1=C(Cc2ccc3scnc3c2)C(=O)c2ccccc2C1=O [C-b-40] | 50.29 | 235 | 
CC1=C(Cc2ccc(Cl)cc2C(F)(F)F)C(=O)c2cc(F)ccc2C1=O [A-a-15] |  | 103 | 
CC1=C(Cc2ccc(Br)cc2C(F)(F)F)C(=O)c2cc(F)ccc2C1=O [B-a-34] |  | 169 | 
CC1=C(Cc2ccc3c(c2)OC(C)(C)O3)C(=O)c2ccccc2C1=O [A-b-23] |  | 152 | 
COc1ccccc1CC1=C(C)C(=O)c2ccc(F)cc2C1=O [A-a-18] | 189.3 | 572 | 
CC1=C(Cc2ccc(Cl)cc2Cl)C(=O)c2cc(F)ccc2C1=O [A-a-14] |  | 137 | 
CC1=C(Cc2ccccc2F)C(=O)c2cc(F)ccc2C1=O [A-a-6] | 7.6 | 119 | 
COc1ccc(CC2=C(C)C(=O)c3ccc(F)cc3C2=O)c(OC)c1 [A-a-20] | 106.6 | 316 | 
COc1ccc(OC)c(CC2=C(C)C(=O)c3ccc(F)cc3C2=O)c1 [A-a-26] | 91.7 | 291 | 
CC1=C(Cc2ccc3c(c2)OC(F)(F)O3)C(=O)c2cc(F)ccc2C1=O [A-a-24] |  | 206 | 
CC1=C(Cc2cccc(C(F)(F)F)c2)C(=O)c2cc(F)ccc2C1=O [A-a-1] | 12.5 | 82 | 

SMILES | Tox/L6 [1] [µM] | IC50 [2, 6] [nM] | further results
CC1=C(Cc2ccco2)C(=O)c2ccccc2C1=O [A-b-43] |  |  | Tox/L6 ([3]; grey line ref 8): 4.2 µM; IC50 ([4]; grey line ref 8): 501 nM
COc1cccc(CC2=C(C)C(=O)c3ccc(F)cc3C2=O)c1 [A-a-17] | 165.6 | 361 | 
CC1=C(Cc2ccc(F)c(C(F)(F)F)c2)C(=O)c2cc(F)ccc2C1=O [A-a-9] |  | 149 | 
COc1ccc(CC2=C(C)C(=O)c3ccc(F)cc3C2=O)c(OC)c1OC [A-a-25] | 215.5 | 340 | 
CC1=C(Cc2cccc(C#N)c2)C(=O)c2ccccc2C1=O [B-b-30] | 72.6 | 190 | 
CC1=C(Cc2ccccc2C(F)(F)F)C(=O)c2cc(F)ccc2C1=O [A-a-2] | 53.4 | 138 | 
CC1=C(Cc2ccc3ncsc3c2)C(=O)c2ccccc2C1=O [C-b-41] | 49.81 | 370 | 
CC1=C(Cc2ccc3c(c2)OCCO3)C(=O)c2ccccc2C1=O [A-b-22] |  | 280 | 
CC1=C(Cc2ccc(F)c(I)c2)C(=O)c2cc(F)ccc2C1=O [B-a-33] |  | 376 | 
CC1=C(Cc2ccc(S(F)(F)(F)(F)F)cc2)C(=O)c2ccccc2C1=O [C-b-46, 4′-SF5-substituted 3-benzylmenadione] | 35.1 | 48 | 
COc1cc(CC2=C(C)C(=O)c3ccc(F)cc3C2=O)cc(OC)c1 [B-a-35] | 293.0 | 711 | 
CC1=C(Cc2cccc(F)c2)C(=O)c2cc(F)ccc2C1=O [A-a-5] | 6.6 | 246 | 
COc1ccc(CC2=C(C)C(=O)c3ccccc3C2=O)cc1OC [A-b-19] |  |  | Tox/L6 ([3]; grey line ref 13): 5.6 µM; IC50 ([4]; grey line ref 13): 142 nM
CC1=C(CC2CCCCC2)C(=O)c2ccccc2C1=O [A-b-29] | 229.9 | 913 | 
CC1=C(Cc2ccc3c(c2)OCO3)C(=O)c2ccccc2C1=O [A-b-21] | 97.9 | 200 | 
CC1=C(Cc2ccc(I)cc2)C(=O)c2ccccc2C1=O [B-b-13] |  |  | Tox/L6 ([3]; grey line ref 9): 138.6 µM; IC50 ([4]; grey line ref 9): 115 nM
CC1=C(Cc2ccc(C(F)(F)F)c(Br)c2)C(=O)c2ccccc2C1=O [A-b-8] |  | 81 | IC50 [2, 7]: < 100 nM
CC1=C(Cc2ccc(F)c(I)c2)C(=O)c2ccccc2C1=O [B-b-33] |  | 136 | 
CC1=C(Cc2ccccc2C#N)C(=O)c2cc(F)ccc2C1=O [A-a-11] | 327.0 | 264 | 
CC1=C(Cc2ccc(C#N)cc2)C(=O)c2cc(F)ccc2C1=O [A-a-10] | 95 | 231 | 
CC1=C(Cc2ccc3c(c2)OC(F)(F)O3)C(=O)c2ccccc2C1=O [A-b-24] |  | 77 | IC50 [2, 7]: < 100 nM
CC1=C(Cc2ccccc2)C(=O)c2ccccc2C1=O [B-b-31] |  |  | IC50 ([4]; grey line ref 9): 1700 nM
CC1=C(Cc2ccc(C(F)(F)F)c(F)c2)C(=O)c2ccccc2C1=O [A-b-7] | 49.2 | 2960 | 

SMILES | Tox/L6 [1] [µM] | IC50 [2, 6] [nM] | further results
CC1=C(Cc2cccc(C#N)c2)C(=O)c2cc(F)ccc2C1=O [B-a-30] | 33.3 | 326 | 
CC1=C(Cc2ccc3c(c2)OCO3)C(=O)c2cc(F)ccc2C1=O [A-a-21] | 165.6 | 70 | IC50 [2, 7]: < 100 nM
CC1=C(Cc2ccccc2F)C(=O)c2ccccc2C1=O [A-b-6] |  | 453 | 
CC1=C(Cc2ccc([N+](=O)[O-])cc2)C(=O)c2cc(F)ccc2C1=O [A-a-12] | 307.0 | 177 | 
CC1=C(Cc2ccc3ncsc3c2)C(=O)c2cc(F)ccc2C1=O [C-a-41] |  | 2530 | 
CC1=C(Cc2cccc(F)c2)C(=O)c2ccccc2C1=O [B-b-5] | 71.0 | 89 | IC50 [2, 7]: < 100 nM
CC1=C(Cc2ccc(Cl)cc2C(F)(F)F)C(=O)c2ccccc2C1=O [A-b-15] |  | 80 | IC50 [2, 7]: < 100 nM
CC1=C(Cc2ccc(Cl)cc2Cl)C(=O)c2ccccc2C1=O [A-b-14] |  | 67 | IC50 [2, 7]: < 100 nM
CC1=C(Cc2ccc(C(F)(F)F)c(Br)c2)C(=O)c2cc(F)ccc2C1=O [A-a-8] |  | 167 | 
CC1=C(Cc2ccccc2C(F)(F)F)C(=O)c2ccccc2C1=O [B-b-2] |  |  | IC50 [2, 7]: < 100 nM; Tox/L6 ([3]; grey line ref 9): 249.8 µM; IC50 ([4]; grey line ref 9): 26 nM
COc1ccc(CC2=C(C)C(=O)c3ccc(F)cc3C2=O)cc1OC [A-a-19] | 5.6 | 171 | 
CC1=C(Cc2ccc([N+](=O)[O-])cc2)C(=O)c2ccccc2C1=O [A-b-12] |  |  | IC50 [2, 8]: > 200 nM; IC50 ([4]; grey line ref 8): 201 nM
O=C1C(O)=C([C@H]2CC[C@H](c3ccc(Cl)cc3)CC2)C(=O)c2ccccc21 [atovaquone, reference compound] |  |  | solubility thermodynamic at 24 h [5]: 1.55 ± 0.04 µM (≈ 0.569 µg/mL)
CC1=C(Cc2cccs2)C(=O)c2cc(F)ccc2C1=O [A-a-28] | 5.8 | 474 | 
COc1cc(CC2=C(C)C(=O)c3ccc(F)cc3C2=O)cc(OC)c1OC [A-a-27] | 72.4 | 265 | 
CC1=C(Cc2ccc(C(F)(F)F)c(F)c2)C(=O)c2cc(F)ccc2C1=O [A-a-7] | 85.5 | 735 | 
CC1=C(Cc2ccc(F)cc2)C(=O)c2cc(F)ccc2C1=O [A-a-4] | 174.5 | 302 | 
CC1=C(Cc2ccc(I)cc2)C(=O)c2cc(F)ccc2C1=O [A-a-13] | 40.9 | 198 | 
CC1=C(Cc2ccc([N+](=O)[O-])c(F)c2)C(=O)c2cc(F)ccc2C1=O [B-a-32] | 107.4 | 705 | 
CC1=C(Cc2ccco2)C(=O)c2cc(F)ccc2C1=O [C-a-43] | 3.8 | 947 | 
CC1=C(Cc2cccs2)C(=O)c2ccccc2C1=O [A-b-28] | 5.2 | 115 | 
